Calls of active or inactive are those of the source. The calls are words filed in the database; no cut-off is given here.
How the values were obtained:
Tetranychus urticae [1] = test system: Tetranychus urticae
Spodoptera exigua = assay: Insecticidal activity against Spodoptera exigua second-instar larvae feeded on 400 ppm compound treated lepidopteran diet assessed as insect mortality measured 5 days post compound treatment under green house conditions; type: functional; conditions: at 400 ppm
Trichoplusia ni [2] = test system: Trichoplusia ni
Heliothis virescens [3] = test system: Heliothis virescens
Aphis gossypii [4] = assay: Insecticidal activity against Aphis gossypii (cotton aphid) infested one week old Crookneck squash plants assessed as insect mortality at 50 ppm measured after 3 days post compound application under green house conditions; type: functional; conditions: 72 h
Heliothis virescens [5] = assay: Insecticidal activity against Heliothis virescens (tobacco budworm) second-instar larvae infested on 400 ppm compound pre-treated cotton cotyledon disk assessed as insect mortality measured 5 days post compound treatment under green house conditions; type: functional
Bemisia tabaci [6] = assay: Insecticidal activity against Bemisia tabaci (sweet potato whitefly) second-instar larvae infested five weeks old cotton plants followed by compound 250 ppm compound spraying after insect oviposit assessed as insect mortality measured 13 days post compound treatment under green house conditions; type: functional
Trichoplusia ni [7] = assay: Insecticidal activity against Trichoplusia ni (cabbage looper) second-instar larvae infested on 400 ppm compound pre-treated cabbage leaf disk assessed as insect mortality measured 5 days post compound treatment under green house conditions; type: functional; conditions: at 400 ppm
Aphis gossypii [8] = test system: Aphis gossypii
Bemisia tabaci [9] = test system: Bemisia tabaci
Tetranychus urticae [10] = assay: Insecticidal activity against female Tetranychus urticae (two-spotted spider mite) infested cotton leaf disks followed by 2.5 ppm compound spraying after oviposit assessed as insect mortality measured after 6 days post compound application under green house conditions; type: functional; conditions: foliar, 144 h

Row | SMILES | mortality (Tetranychus urticae [1]) | mortality (Spodoptera exigua) | mortality (Trichoplusia ni [2]) | mortality (Heliothis virescens [3]) | mortality at 50 ppm (Aphis gossypii [4]) | mortality (Heliothis virescens [5]) | mortality (Bemisia tabaci [6]) | mortality (Trichoplusia ni [7]) | mortality (Aphis gossypii [8]) | mortality (Bemisia tabaci [9]) | mortality at 2.5 ppm (Tetranychus urticae [10])
1 | Cc1cc(C2=CCC(OC(F)(F)C(F)Br)CC2)sc1-c1nc(-c2c(F)cccc2Cl)nn1C (centres undefined) | inactive | <50% | inactive | inactive | < 50% |  |  |  |  |  | 
2 | Cn1nc(-c2c(F)cccc2Cl)nc1-c1sc(-c2ccc(OC(F)(F)F)cc2)c(Cl)c1Cl | inactive | 70% |  |  |  | 60% | 70% | 90% | inactive |  | 
3 | CCOc1ccc(-c2ccc(-c3nc(-c4c(F)cccc4Cl)nn3C)s2)cc1 | inactive | 80% |  | inactive |  |  | <50% | 90% | inactive |  | 
4 | COc1ccc(-c2ccc(-c3nc(-c4c(F)cccc4F)nn3C)s2)cc1 | inactive | 90% |  | inactive |  |  |  | <50% | inactive | inactive | 
5 | Cn1nc(-c2c(F)cccc2Cl)nc1-c1sc(-c2ccc(-c3ccccc3)cc2)c(Cl)c1Cl |  | 50% | inactive |  | 90% | 90% | <50% |  |  |  | 80%
6 | Cc1c(-c2nc(-c3c(F)cccc3Cl)nn2C)sc(Br)c1-c1ccc(OC(F)(F)F)cc1 |  | 90% | inactive | inactive |  |  |  |  | inactive | inactive | 50%
7 | Cn1nc(-c2c(F)cccc2F)nc1-c1cc(-c2ccccc2)c(C(F)(F)F)s1 | inactive | 50% | inactive | inactive |  |  |  |  | inactive |  | 
8 | Cc1cc(-c2cc(Br)cc(Br)c2)sc1-c1nc(-c2c(F)cccc2Cl)nn1C | inactive | 60% | inactive |  |  | <50% |  |  | inactive | inactive | 
9 | Cc1sc(-c2nc(-c3c(F)cccc3Cl)nn2C)c(C)c1-c1ccc(C(C)C)cc1 |  | 80% | inactive |  | < 50% | 80% |  |  |  | inactive | 90%
10 | Cn1nc(-c2c(F)cccc2Cl)nc1-c1ccc(-c2ccc(F)cc2)s1 | inactive | <50% |  | inactive |  |  | <50% | 80% | inactive |  | 
11 | Cc1c(-c2ccc(C(F)(F)F)cc2)csc1-c1nc(-c2c(F)cccc2Cl)nn1C |  | 60% |  | inactive | 60% |  | <50% | 90% |  |  | 60%
12 | Cc1cc(C2(O)CCC(=O)CC2)sc1-c1nc(-c2c(F)cccc2Cl)nn1C | inactive | <50% |  |  |  | <50% |  | <50% | inactive | inactive | 
13 | Cc1ccc(-c2cc(Cl)c(-c3nc(-c4c(F)cccc4Cl)nn3C)s2)cc1 |  | <50% | inactive |  |  | 60% |  |  | inactive | inactive | 90%
14 | Cn1nc(-c2c(F)cccc2Cl)nc1-c1sc(-c2ccc(Br)cc2)c(Cl)c1Cl |  | 70% | inactive |  |  | 90% | 50% |  | inactive |  | 90%
15 | Cn1nc(-c2c(F)cccc2Cl)nc1-c1sc(-c2ccc(C(C)(C)C)cc2)c(Cl)c1Cl |  | 50% | inactive |  | 80% | <50% | <50% |  |  |  | 60%
16 | Cc1c(-c2ccc(OC(F)(F)C(F)Br)cc2)sc(-c2nc(-c3c(F)cccc3Cl)nn2C)c1C (centres undefined) |  | 70% | inactive |  | < 50% | 90% | 80% |  |  |  | 90%
17 | Cc1cc(C2=CCC(OC(F)(F)C(F)Cl)CC2)sc1-c1nc(-c2c(F)cccc2Cl)nn1C (centres undefined) |  | 70% | inactive |  | 90% | 90% | 50% |  |  |  | 90%
18 | Cn1nc(-c2c(F)cccc2Cl)nc1-c1cc(-c2ccc(Cl)cc2)c(Cl)s1 | inactive | 50% |  | inactive |  |  |  |  | inactive |  | 

From ChEMBL document CHEMBL3044558, “Structure-activity relationship development of dihaloaryl triazole compounds as insecticides and acaricides. 1. Phenyl thiophen-2-yl triazoles” (2007)
